We go through 12 compounds from PubChem BioAssay (NCI).

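Each compound was tested at five concentrations against cells in 96-well plates for 48 hours. Here, GI50 denotes the concentration required for 50% inhibition of growth. The concentration for full growth arrest is given as TGI.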 Where only a bound is given, the exact number is not on record here.

Some test systems named below: TK-10 renal; LOX IMVI melanoma; SR leukemia; SN12C renal; UACC-257 melanoma; HCC-2998 colon; RPMI-8226 leukemia; ACHN renal; M14 melanoma; MALME-3M melanoma.
Common to all, as to experiment: NCI-60 cell line screen, 48 h

Consider `COc1ccc(-c2cnc(-c3ccncc3-c3cccc(OC)c3)o2)cc1`, for which the GI50 was 11.7 µM with TK-10 renal; 0.0599 µM in the test with LOX IMVI melanoma; less than 0.0152 µM with SR leukemia; 0.0798 µM in the test on SN12C renal; 0.403 µM with UACC-257 melanoma; 0.0799 µM in the test on HCC-2998 colon. Besides, the GI50 in the test with RPMI-8226 leukemia was 0.0387 µM; in the test on ACHN renal, 0.138 µM; with M14 melanoma it was 0.0304 µM. In addition, the TGI with TK-10 renal was 42.1 µM; in the test with LOX IMVI melanoma, 15.5 µM; in the test on SR leukemia, 13.5 µM; in the test with SN12C renal, 16 µM; in the test with UACC-257 melanoma, 15.8 µM; with HCC-2998 colon it was 14.3 µM. In addition, the TGI in the test with RPMI-8226 leukemia was found to be 5.75 µM; in the test on ACHN renal, 14.7 µM; in the test with M14 melanoma, 14.2 µM.

On to `Cc1cc(OC2OC(CO)C(O)C(O)C2O)ccc1O` (stereo unspecified), for which the TGI in the test with TK-10 renal, in the test on LOX IMVI melanoma, with MALME-3M melanoma, with SN12C renal, in the test on UACC-257 melanoma and with HCC-2998 colon was more than 100 µM each time. Besides, the TGI in the test with RPMI-8226 leukemia, in the test on ACHN renal and in the test with M14 melanoma was more than 100 µM throughout.

Turning to `CN1CCCc2nc3ccccc3n2C1`, the TGI in the test with TK-10 renal is more than 100 µM; with LOX IMVI melanoma, more than 100 µM; in the test with MALME-3M melanoma, more than 100 µM; in the test on SN12C renal, more than 100 µM; in the test with UACC-257 melanoma, more than 100 µM; in the test on RPMI-8226 leukemia, 68.8 µM. Further, the TGI in the test on ACHN renal and with M14 melanoma was more than 100 µM each time.

On to `CCCCCCCCCCCCCCCC(=O)OCC1OC(n2cc(F)c(=O)[nH]c2=O)C(NC(=O)OCc2ccccc2)C(O)C1O` (stereo unspecified), for which the TGI was 43 µM in the test on TK-10 renal; 32.5 µM in the test on LOX IMVI melanoma; 9.44 µM in the test on MALME-3M melanoma; 38 µM in the test on SN12C renal; 31.9 µM in the test on HCC-2998 colon; 39.3 µM in the test with RPMI-8226 leukemia. For the same compound, the TGI was more than 100 µM in the test on ACHN renal and 33.1 µM in the test on M14 melanoma.

With `COC(=O)[C@]12CC[C@@H](C)[C@H](C)[C@@H]1C1=CC[C@@H]3[C@@]4(C)C(C=O)=C[C@@](C)(COS(C)(=O)=O)C4=CC[C@@]3(C)[C@]1(C)CC2`, the GI50 in the test on TK-10 renal is 0.211 µM; in the test with LOX IMVI melanoma, 0.169 µM; in the test on MALME-3M melanoma it was 0.173 µM; with SN12C renal it was 0.339 µM; in the test with HCC-2998 colon, 0.204 µM; in the test on RPMI-8226 leukemia, 0.263 µM. Further, the GI50 is 0.171 µM in the test with ACHN renal and 0.213 µM in the test on M14 melanoma. Also, the TGI in the test on TK-10 renal was 0.512 µM; with LOX IMVI melanoma it was 0.316 µM; with MALME-3M melanoma, 0.34 µM; with SN12C renal, 1.92 µM; in the test with HCC-2998 colon, 0.466 µM; in the test with RPMI-8226 leukemia it was 1.1 µM. The TGI with ACHN renal was 0.317 µM; in the test with M14 melanoma it was 0.486 µM.

Take `O=c1c2ccccc2nc(-c2cccc(Cl)c2)n1NC1OC(CO)C(O)C(O)C1O` (stereo unspecified): the TGI with TK-10 renal, with MALME-3M melanoma, in the test with SN12C renal, with UACC-257 melanoma, with HCC-2998 colon and with RPMI-8226 leukemia was more than 100 µM in each case. In addition, the TGI in the test on ACHN renal and in the test with M14 melanoma was more than 100 µM each time.

Turning to `CC1CCCP(=O)(c2ccccc2)CCC1` (stereo unspecified), the TGI with TK-10 renal, with LOX IMVI melanoma, in the test on MALME-3M melanoma, with SN12C renal, in the test with UACC-257 melanoma and with HCC-2998 colon was more than 100 µM each time. Also, the TGI in the test on RPMI-8226 leukemia, in the test on ACHN renal and in the test with M14 melanoma was more than 100 µM throughout.

In the case of `CCc1c(OC(C)=O)c2c(NC3OC(COC(C)=O)C(OC(C)=O)C(OC(C)=O)C3OC(C)=O)nc(SC)nc2oc1=O` (stereo unspecified), the TGI in the test with TK-10 renal, with LOX IMVI melanoma, in the test on MALME-3M melanoma, with SN12C renal, in the test with UACC-257 melanoma and in the test on HCC-2998 colon was more than 100 µM throughout. Further, the TGI with RPMI-8226 leukemia, with ACHN renal and with M14 melanoma was more than 100 µM in each case.

`CC(C)(C)OC(=O)N[C@H]1CC(=O)c2ccccc2N(CC(=O)O)C1=O`: the TGI was more than 100 µM with TK-10 renal; more than 100 µM with LOX IMVI melanoma; 37.1 µM with MALME-3M melanoma; more than 100 µM with SN12C renal; more than 100 µM in the test with UACC-257 melanoma; more than 100 µM in the test on HCC-2998 colon. Moreover, the TGI in the test on ACHN renal and with M14 melanoma was more than 100 µM each time.

On to `O=C(Nc1ccc(-n2cc(-c3ccncc3)c(-c3ccc(Cl)c(O)c3)n2)cc1)c1cc(C(F)(F)F)cc(C(F)(F)F)c1`, for which the GI50 in the test with TK-10 renal is 7.55 µM; in the test with LOX IMVI melanoma, 2.54 µM; in the test with SR leukemia, 9.51 µM; with SN12C renal it was 7.14 µM; with UACC-257 melanoma it was 8.95 µM; with HCC-2998 colon, more than 100 µM. Moreover, the GI50 in the test with RPMI-8226 leukemia was 3.86 µM; in the test on ACHN renal, 6.47 µM; with M14 melanoma, 6.34 µM. In addition, the TGI in the test with TK-10 renal was 23 µM; in the test on LOX IMVI melanoma, 10.4 µM; in the test with SR leukemia it was more than 100 µM; in the test with SN12C renal, 89.9 µM; in the test with UACC-257 melanoma, more than 100 µM; in the test with HCC-2998 colon, more than 100 µM. Besides, the TGI with RPMI-8226 leukemia is more than 100 µM; with ACHN renal, 31.1 µM; in the test on M14 melanoma it was 89.2 µM.

For the compound `COC(=O)C1CCC(C)CC1=O` (stereo unspecified), the TGI with TK-10 renal, in the test with LOX IMVI melanoma, in the test on MALME-3M melanoma, with SN12C renal, in the test on UACC-257 melanoma and in the test on HCC-2998 colon was more than 100 µM each time. In addition, the TGI in the test on RPMI-8226 leukemia, in the test on ACHN renal and with M14 melanoma was more than 100 µM each time.

Regarding `[O-][n+]1c2cccc(O)c2[n+]([O-])c2cccc(O)c21`, the TGI is more than 100 µM in the test with TK-10 renal; more than 100 µM in the test on LOX IMVI melanoma; more than 100 µM with UACC-257 melanoma; 83.3 µM in the test with RPMI-8226 leukemia; 51.8 µM in the test with ACHN renal; more than 100 µM in the test on M14 melanoma.
